Patent publication US20240226103A1, “SOLID DISPERSION OF A HER2 INHIBITOR” (Boehringer Ingelheim International GmbH, priority 2022, published 2024)
In brackets after ≈: the same amount, converted by molar mass. Where two headings read alike, the source gives them in different places.

How the values were obtained:
Type in all cases: physicochemical
[1] = Organic solubility screening in DCM:methanol solvent blends (visual observation)
Protocol: Solubility is determined by visual observation.

[2] = pH-dependent solubility of compound (1) in aqueous media
Description: Consequently, the in vivo absorption of compound (1) is affected by gastric pH. […] Such a decrease may occur to different extents in different patients due to inter-patient stomach pH variability.

[3] = Equilibrium solubility in aqueous media at different pH and in biorelevant media (UPLC-UV-MS); conditions: for Equilibrium solubility Conc.: 24 h; for solubility thermodynamic at 24 h: thermodynamic from solid, read-out: Equilibrium solubility Conc.
Protocol: Discard the first ˜3.5 mL then collect 3 aliquots (˜0.5 mL) to be analyzed. • Quantification of the 3 aliquots by UPLC-UV-MS with the appropriate calibration curve.
• Instrument: Waters Acquity H-Class with PDA and QDa detectors • Column: Waters Acquity BEH C18, 1.7 μm, 2.1×50 mm • Flow rate: 0.65 mL/min • UV detection: 254 nm or 410 nm • Column temperature: 40° C.±2° C. • Sample temperature: 23° C.±2° C. • Injection volumes: 0.4 μL (for concentration between 1-500 μg/mL) and 9 μL (for concentration between 0.050-1 μg/mL) • Mobile phase: gradient with solutions A and B prepared as follows
• Ionisation mode: ESI+/ESI− • Source temperature: 600° C. • Capillary voltage: 0.8 kV • Cone voltage: +20V/−20V
Two standard calibration curves (chromatographic UV peak area vs. concentration) are established in DMSO at 254 nm or 410 nm for each solid form and for the solid dispersion, one between 0.025 or 0.050 μg/mL and 1 μg/mL (injection volume=9 μL) and another between 1 μg/mL and 500 μg/mL (injection volume=0.4 μL). The calibration curves are linear in the whole investigated concentration range.

[4] = Acetate Buffer pH 4, room temperature
[5] = Phosphate Buffer pH 7.4, room temperature

| Solubility ([1]; DCM:methanol 70:30) [wt %] | Solubility ([1]; DCM:methanol 80:20) [wt %] | Solubility ([1]; DCM:methanol 90:10) [wt %] | decrease in solubility between pH 1.2 and pH 6.8 [2] | Equilibrium solubility Conc. [3, 4] [µg/mL] | Equilibrium solubility Conc. ([3]; Acetate Buffer pH 5, room temperature) [µg/mL] | Equilibrium solubility Conc. ([3]; FaSSIF pH 6.5, 37° C.) [µg/mL] | Equilibrium solubility Conc. ([3]; FeSSIF pH 5.0, 37° C.) [µg/mL] | Equilibrium solubility Conc. ([3]; HCl 0.01N pH 2, room temperature) [µg/mL] | Equilibrium solubility Conc. ([3]; Phosphate Buffer pH 6.8, room temperature) [µg/mL] | Equilibrium solubility Conc. [3, 5] [µg/mL] | solubility thermodynamic at 24 h ([3]; FaSSIF, 37 °C, pH 6.5, fassif, FaSSIF pH 6.5, 37° C.) [µg/mL] | solubility thermodynamic at 24 h ([3]; FeSSIF, 37 °C, pH 5, fessif, FeSSIF pH 5.0, 37° C.) [µg/mL] | solubility thermodynamic at 24 h ([3]; HCl 0.01N, pH 2, simulated gastric fluid, HCl 0.01N pH 2, room temperature) [µg/mL] | solubility thermodynamic at 24 h ([3]; acetate buffer, pH 5, aqueous buffer, Acetate Buffer pH 5, room temperature) [µg/mL] | solubility thermodynamic at 24 h ([3]; phosphate buffer, pH 6.8, aqueous buffer, Phosphate Buffer pH 6.8, room temperature) [µg/mL] | SMILES |
| --- | --- | --- | --- | --- | --- | --- | --- | --- | --- | --- | --- | --- | --- | --- | --- | --- |
| >16.8 | >18.7 | >17.1 | about 10^5 fold |  |  |  |  |  |  |  |  |  |  |  |  | C=CC(=O)NC1CCN(c2ncc3ncnc(Nc4ccc(Oc5ccc6c(c5)ncn6C)c(C)c4)c3n2)CC1 [compound (1), N-{1-[8-({3-methyl-4-[(1-methyl-1H-1,3-benzodiazol-5-yl)oxy]phenyl}amino)-[1,3]diazino[5,4-d]pyrimidin-2-yl]piperidin-4-yl}prop-2-enamide] |
|  |  |  |  | 3 | 0.075 | 0.726 | 44 | 761 | 0.027 | 0.018 |  |  |  |  |  | C=CC(=O)NC1CCN(c2ncc3ncnc(Nc4ccc(Oc5ccc6c(c5)ncn6C)c(C)c4)c3n2)CC1 [compound (1) Form IV, N-{1-[8-({3-methyl-4-[(1-methyl-1H-1,3-benzodiazol-5-yl)oxy]phenyl}amino)-[1,3]diazino[5,4-d]pyrimidin-2-yl]piperidin-4-yl}prop-2-enamide] |
|  |  |  |  | 6.6 |  |  |  |  |  | 0.056 | 0.803 (≈ 1.5 µM) | 49 (≈ 91.5 µM) | 1320 (≈ 2470 µM) | 0.126 (≈ 0.235 µM) | 0.025 (≈ 0.0467 µM) | C=CC(=O)NC1CCN(c2ncc3ncnc(Nc4ccc(Oc5ccc6c(c5)ncn6C)c(C)c4)c3n2)CC1 [compound (1) Form III, N-{1-[8-({3-methyl-4-[(1-methyl-1H-1,3-benzodiazol-5-yl)oxy]phenyl}amino)-[1,3]diazino[5,4-d]pyrimidin-2-yl]piperidin-4-yl}prop-2-enamide] |
